The target of data set [1] is T1, GAK (Homo sapiens, UniProt O14976).
T1 construct: made in house; host or cells: T7 phage grown in E. coli host derived from BL21
T1 sequence (O14976 1-1311): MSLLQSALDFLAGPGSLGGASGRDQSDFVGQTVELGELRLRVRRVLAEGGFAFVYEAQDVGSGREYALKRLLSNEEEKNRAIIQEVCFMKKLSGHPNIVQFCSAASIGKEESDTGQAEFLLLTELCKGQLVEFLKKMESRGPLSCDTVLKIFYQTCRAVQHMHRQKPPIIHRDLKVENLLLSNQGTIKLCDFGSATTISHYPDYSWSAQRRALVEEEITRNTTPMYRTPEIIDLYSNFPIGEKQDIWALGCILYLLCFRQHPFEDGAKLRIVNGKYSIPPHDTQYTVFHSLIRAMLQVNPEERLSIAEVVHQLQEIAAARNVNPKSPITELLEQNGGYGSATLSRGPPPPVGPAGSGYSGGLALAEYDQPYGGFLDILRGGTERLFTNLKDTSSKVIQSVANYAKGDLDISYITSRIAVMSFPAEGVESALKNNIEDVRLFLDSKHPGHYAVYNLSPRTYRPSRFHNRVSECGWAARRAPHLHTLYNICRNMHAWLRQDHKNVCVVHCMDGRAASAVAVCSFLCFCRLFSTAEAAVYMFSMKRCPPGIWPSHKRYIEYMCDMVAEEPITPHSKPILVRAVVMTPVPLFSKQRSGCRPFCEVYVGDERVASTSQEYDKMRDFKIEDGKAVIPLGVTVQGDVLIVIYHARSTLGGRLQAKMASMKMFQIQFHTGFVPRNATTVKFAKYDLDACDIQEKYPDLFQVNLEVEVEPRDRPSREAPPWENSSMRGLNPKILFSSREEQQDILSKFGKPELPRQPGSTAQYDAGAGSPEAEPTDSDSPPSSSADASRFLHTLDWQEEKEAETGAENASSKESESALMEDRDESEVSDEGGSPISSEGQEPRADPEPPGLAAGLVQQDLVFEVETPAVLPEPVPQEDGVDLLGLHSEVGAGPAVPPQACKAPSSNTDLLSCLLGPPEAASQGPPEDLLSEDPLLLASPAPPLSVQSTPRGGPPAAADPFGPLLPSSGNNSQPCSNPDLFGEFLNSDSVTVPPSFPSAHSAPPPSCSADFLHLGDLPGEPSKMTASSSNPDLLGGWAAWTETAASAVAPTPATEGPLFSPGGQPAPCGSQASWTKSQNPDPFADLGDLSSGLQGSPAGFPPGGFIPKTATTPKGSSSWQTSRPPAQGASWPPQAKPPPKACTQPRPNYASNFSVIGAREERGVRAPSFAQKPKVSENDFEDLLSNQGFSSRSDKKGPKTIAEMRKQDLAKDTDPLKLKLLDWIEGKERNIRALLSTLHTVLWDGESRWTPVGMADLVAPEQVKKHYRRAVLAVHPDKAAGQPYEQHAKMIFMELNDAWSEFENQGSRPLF
The data set is described as follows: GAK binding assay (T7 phage kinase competition binding). Conditions: for % Ctrl: 10 µM; for remaining binding at 10 µM: read-out: % Ctrl.

Data set [2] deals with SARS Coronavirus (Virus strain: Urbani). The data set is described as follows: microbe, parasite or virus in culture. Format: cell-based.
The nature of data set [3]: Cytotoxicity in CPE assay, Vero76. Conditions: African green monkey.
The subject of data set [4] is Vero76. The following applies: African green monkey.
Data set [5] in a line: in vitro. Conditions: African green monkey.
The mark [6] stands for this setting: single concentration of 10 μM, lower numbers indicate stronger hits.
Setting [7] is: Severe acute respiratory syndrome coronavirus, Vero 76.

From patent US9822127B2, “GAK modulators as antivirals” (Katholieke Universiteit Leuven, priority 2014, dated 2017) come the findings set out here.

Converted amounts (≈) assume the structure as drawn. Where two headings read alike, the source gives them in different places.

With “6-bromo-6-ethanolamino-isothiazolo[4,3-b]pyridine [Example 12]”, the “% Ctrl” value in data set [1] was 62%. Turning to `Nc1snc2cc(-c3ccccc3)cnc12` [Example 4, 3-amino-6-phenyl-isothiazolo[4,3-b]-pyridine], in data set [1] (setting [6]), the remaining binding at 10 µM was found to be 68%. On the same count and under the same terms, next, `Nc1snc2cc(-c3cccnc3)cnc12` [Example 5, 3-amino-6-(3-pyridyl)-isothiazolo[4,3-b]pyridine]: 80%; `COc1ccc(-c2cnc3c(N)snc3c2)cc1OC` [Example 6, 3-amino-6-(3,4-dimethoxyphenyl)-isothiazolo[4,3-b]pyridine]: 70%; `Nc1snc2cc(-c3ccc(F)cc3)cnc12` [Example 7, 3-amino-6-(4-fluorophenyl)-isothiazolo[4,3-b]pyridine]: 55%. On the same count and under the same terms, next, `Nc1snc2cc(-c3ccsc3)cnc12` [Example 8, 3-amino-6-(3-thienyl)-isothiazolo[4,3-b]pyridine]: 61%. Regarding `COc1snc2cc(Br)cnc12` [Example 14, 3-methoxy-6-bromo-isothiazolo[4,3-b]pyridine], the “% Ctrl” value in data set [1] (setting [6]) came out at 87%. Compound `c1ccc(-c2cnc3c(N4CCOCC4)snc3c2)cc1` [Example 23, 3-morpholino-6-phenyl-isothiazolo[4,3-b]pyridine] yielded a Kd in data set [1] of 500 nM. In addition, in data set [1] (setting [6]), the remaining binding at 10 µM was determined as 0.8%. Further, the values for the EC50 in data set [2] and in data set [2] (setting [7]) were 4.4 µg/mL (≈ 14.8 µM) and 4.5 µg/mL (≈ 15.1 µM), respectively. The CC50 in data set [3] (CC50, Neutral Red) is 50 µg/mL (≈ 168 µM); in data set [3] (CC50, Visual), 34 µg/mL (≈ 114 µM). Consider `Fc1ccc(-c2cnc3c(N4CCOCC4)snc3c2)cc1` [Example 24], for which the remaining binding at 10 µM in data set [1] (setting [6]) amounted to 11%. On to `c1cncc(-c2cnc3c(N4CCOCC4)snc3c2)c1` [Example 25, 3-morpholino-6-(3-pyridyl)-isothiazolo[4,3-b]pyridine], for which the remaining binding at 10 µM in data set [1] (setting [6]) was 25%. Same read-out and setting: as for `COc1ccc(-c2cnc3c(N4CCOCC4)snc3c2)cc1OC` [Example 26], the figure is 0%. On the same count and under the same terms, as for `c1cc(-c2cnc3c(N4CCOCC4)snc3c2)cs1` [Example 27], the figure is 0.1%; as for `OCCNc1snc2cc(-c3cccnc3)cnc12` [Example 28], 45%.

In data set [1], `OCCNc1snc2cc(-c3ccsc3)cnc12` [Example 30, 3-ethanolamino-6-(3-thienyl)-isothiazolo[4,3-b]pyridine] yielded a Kd of 300 nM. In addition, in data set [1] (setting [6]), the remaining binding at 10 µM came out at 0.3%. For the compound `OCCNc1snc2cc(-c3ccccc3)cnc12` [Example 31, 3-ethanolamino-6-phenyl-isothiazolo[4,3-b]pyridine], the remaining binding at 10 µM in data set [1] (setting [6]) came out at 18%. Same read-out and setting: next, `OCCNc1snc2cc(-c3ccc(F)cc3)cnc12` [Example 32, 3-ethanolamino-6-(3-(4-fluorophenyl))-isothiazolo[4,3-b]pyridine]: 2.2%; `COc1snc2cc(-c3ccc(F)cc3)cnc12` [Example 34, 3-methoxy-6-(4-fluoro-phenyl)-isothiazolo[4,3-b]pyridine]: 37%. As for `COc1snc2cc(-c3cccnc3)cnc12` [Example 35], the “% Ctrl” value in data set [1] was 93%. As for `COc1ccc(-c2cnc3c(OC)snc3c2)cc1OC` [Example 36], the “% Ctrl” value in data set [1] was found to be 19%.

In the case of `COc1snc2cc(-c3ccsc3)cnc12` [Example 37], in data set [1], the “% Ctrl” value came out at 22%.

As to `CN1CCN(c2snc3cc(-c4ccccc4)cnc23)CC1` [Example 38], in data set [1] (setting [6]), the remaining binding at 10 µM stood at 76%. On the same count and under the same terms, as for `CN1CCN(c2snc3cc(-c4cccnc4)cnc23)CC1` [Example 39, 3-(N-Me-piperazinyl)-6-(3-pyridyl)-isothiazolo[4,3-b]pyridine], the figure is 88%; as for `COc1ccc(-c2cnc3c(N4CCN(C)CC4)snc3c2)cc1OC` [Example 40, 3-(N-Me-piperazinyl)-6-(3,4-dimethoxyphenyl)-isothiazolo[4,3-b]pyridine], 19%.

In the case of `CN1CCN(c2snc3cc(-c4ccsc4)cnc23)CC1` [Example 41, 3-(N-Me-piperazinyl)-6-(3-thienyl)-isothiazolo[4,3-b]pyridine], the remaining binding at 10 µM in data set [1] (setting [6]) stood at 7.4%. Still for that read-out and setting: as for `CN1CCN(c2snc3cc(-c4ccc(F)cc4)cnc23)CC1` [Example 42, 3-(N-Me-piperazinyl)-6-(4-fluorophenyl)-isothiazolo[4,3-b]pyridine], the figure is 72%. The compound `c1csc(-c2cnc3c(N4CCOCC4)snc3c2)c1` [Example 43, 4-(6-(Thiophen-2-yl)isothiazolo[4,3-b]pyridin-3-yl)morpholine] yielded a Kd in data set [1] of 47 nM. Besides, the remaining binding at 10 µM in data set [1] (setting [6]) amounted to 0.05%. As for `COc1ccc(OC)c(-c2cnc3c(N4CCOCC4)snc3c2)c1` [Example 44, 4-(6-(2,5-Dimethoxyphenyl)isothiazolo[4,3-b]pyridin-3-yl)morpholine], the remaining binding at 10 µM in data set [1] (setting [6]) was 0.7%.

In the case of `COc1ccc(-c2cnc3c(N4CCOCC4)snc3c2)c(OC)c1` [Example 45, 4-(6-(2,4-Dimethoxyphenyl)isothiazolo[4,3-b]pyridin-3-yl)morpholine], in data set [1] (setting [6]), the remaining binding at 10 µM amounted to 6.3%. On the same count and under the same terms, as for `COc1cc(-c2cnc3c(N4CCOCC4)snc3c2)ccc1OC(C)=O` [Example 47, 2-Methoxy-4-(3-morpholinoisothiazolo[4,3-b]pyridin-6-yl)phenyl acetate], the figure is 0%; as for `COc1cc(OC)cc(-c2cnc3c(N4CCOCC4)snc3c2)c1` [Example 48, 4-(6-(3,5-Dimethoxyphenyl)isothiazolo[4,3-b]pyridin-3-yl)morpholine], 0.2%; as for `c1cc2c(cc1-c1cnc3c(N4CCOCC4)snc3c1)OCO2` [Example 51, 4-(6-(Benzo[d][1,3]dioxol-5-yl)isothiazolo[4,3-b]pyridin-3-yl)morpholine], 51%.

As to `COc1ccc(-c2cnc3c(N4CCSCC4)snc3c2)cc1OC` [Example 58, 6-(3,4-dimethoxyphenyl)-3-thiomorpholinoisothiazolo[4,3-b]pyridine], the dissociation constant Kd in data set [1] stood at 230 nM. Also, the remaining binding at 10 µM in data set [1] (setting [6]) came out at 0.8%.

Take `COc1cc(-c2cnc3c(N4CCOCC4)snc3c2)ccc1O` [Example 64, 2-methoxy-4-(3-morpholinoisothiazolo[4,3-b]pyridin-6-yl)phenol]: the remaining binding at 10 µM in data set [1] (setting [6]) came to 0%. The CC50 in data set [3] (CC50, Neutral Red) is 0.97 µg/mL (≈ 2.82 µM); in data set [3] (CC50, Visual) it was 0.42 µg/mL (≈ 1.22 µM).

Regarding `COc1ccc(-c2cnc3c(N4CCC(O)CC4)snc3c2)cc1OC` [Example 66, 1-(6-(3,4-dimethoxyphenyl)-isothiazolo[4,3-b]pyridin-3-yl)piperidin-4-ol], the CC50 in data set [4] and in data set [5] was greater than 100 µg/mL throughout. The EC50 was found to be 38 µg/mL (≈ 102 µM) in data set [2] and 50 µg/mL (≈ 135 µM) in data set [2] (setting [7]). Regarding `COc1ccc(-c2cnc3c(N(CCO)CCO)snc3c2)cc1OC` [Example 70, 2,2′-(6-(3,4-dimethoxyphenyl)isothiazolo[4,3-b]pyridin-3-ylazanediyl)diethanol], in data set [1], the Kd worked out at 320 nM. For the same compound, the remaining binding at 10 µM in data set [1] (setting [6]) came out at 4%.

Take `COc1ccc(-c2cnc3c(N4CCCC4)snc3c2)cc1OC` [Example 73, 6-(3,4-dimethoxyphenyl)-3-(pyrrolidin-1-yl)isothiazolo[4,3-b]pyridine]: the Kd in data set [1] came out at 100 nM. Further, the remaining binding at 10 µM in data set [1] (setting [6]) worked out at 0%. As to `COc1ccc(-c2cnc3c(NCC4CC4)snc3c2)cc1OC` [Example 76, N-(cyclopropylmethyl)-6-(3,4-dimethoxyphenyl)isothiazolo[4,3-b]pyridin-3-amine], in data set [1], the Kd was found to be 27 nM. Moreover, the remaining binding at 10 µM in data set [1] (setting [6]) was 0%. Also, the EC50 in data set [2] was 0.54 µg/mL (≈ 1.58 µM); in data set [2] (setting [7]) it was 0.86 µg/mL (≈ 2.52 µM). For the same compound, the CC50 in data set [3] (CC50, Neutral Red) turned out to be 33 µg/mL (≈ 96.7 µM); in data set [3] (CC50, Visual) it was 18 µg/mL (≈ 52.7 µM).
